Values of other authors, collected in publication PMC7461116, “Synthesis, Anticonvulsant and Antinociceptive Activity of New Hybrid Compounds: Derivatives of 3-(3-Methylthiophen-2-yl)-pyrrolidine-2,5-dione” (International Journal of Molecular Sciences, 2020).

Key:
Conditions in all cases: cited from earlier work
[1] = test system: PTZ-induced clonic seizures; design: method as in PMID 25933955
[2] = test system: latency time to pain reaction; design: method as in PMID 25933955
[3] = test system: maximal electroshock seizures
[4] = test system: motor impairment on rotarod

SMILES: Cc1ccsc1C(=CCCN1CCC[C@@H](C(=O)O)C1)c1sccc1C [tiagabine]
- scPTZ: activity in words [1]: active
- Hot plate: dose at which analgesic activity was observed [2]: 8 mg/kg
- MES: protection in words [3]: did not show protection
- Rotarod: motor impairment in words [4]: significant motor impairment
